From patent publication US8143419B2, “Trisubstituted 1,2,4-triazoles” (Janssen Pharmaceutica N. V., priority 2006, dated 2012)

Legend:
hα7-wt nAChR = molecular target: T1, hα7-wt nAChR (Homo sapiens, UniProt P36544); experiment: Ca2+ flux imaging (FDSS) (Protocol B), PAM activity with choline as agonist; assay type: cell-based; details: for EC50: "<5" = no top plateau at maximal concentration
T1 construct: expressed in transfected cells
Description: • Hanks buffered saline solution (HBSS, Invitrogen, Belgium), supplemented with 10 mM HEPES (Invitrogen, Belgium), CaCl2 to a final concentration of 5 mM, 0.1% Bovine serum albumin (Sigma-Aldrich NV, Belgium). b) Calcium-Sensitive Dye—Fluo-4AM • Fluo-4AM (Molecular Probes, USA) was dissolved in DMSO containing 10% Pluronic acid (Molecular Probes, USA) to give a stock solution which was diluted in assay buffer supplemented with 5 mM probenicid (Sigma, Aldrich NV, Belgium) to give a final concentration of 2 μM. c) 384-Well Plates • Black 384 well plate black/clear plates, PDL pre-coated (Corning, Incorporated, USA) d) Calcium Flux Measurement
A Functional drug screening system (FDSS, Hamamatsu) was used to measure intracellular free-calcium flux signals.
Monolayers of hα7-wt nAChR-expressing cells were grown in multi-well plates, in particular black-sided, transparent bottomed 384 well plates coated with poly-D-lysine for 24 hours prior to loading with a fluorescent calcium indicator, in a particular embodiment loading with fluo-4AM for up to 120 minutes.
PAM activity was detected in real time by applying the compounds to be tested to the loaded cells along with a α7 nicotinic receptor agonist during constant monitoring of cellular fluorescence in a FDSS. Compounds giving peak fluorescent responses greater than the response due to agonist alone, were considered to be α7 nAChR PAM's. In a particular embodiment, the α7 nicotinic receptor agonist was choline, a more particular embodiment choline applied at a sub-maximal concentration of 100 μM. In a further setting of the present invention the compounds to be tested were applied prior to the α7 nicotinic receptor agonist, in a particular embodiment up to 10 minutes prior to the agonist.
A control response to choline was calculated on each plate from the difference in peak in fluorescence in wells receiving either choline or assay buffer alone. Compounds of the present invention were tested at a concentration range from 0.01 μM to 30 μM. Compounds were considered to have an interesting activity when they potentiated the choline signal at least with 500% when tested at a concentration of 30 μM (the efficacy of 100 μM choline was defined as 100% in the absence of a PAM). The compounds also have a potentiating effect on the response to choline when measured by whole-cell patch clamp electrophysiology in GH4C1 cells stably over-expressing the human wild-type α7 receptor.

T1 sequence (P36544 23-502): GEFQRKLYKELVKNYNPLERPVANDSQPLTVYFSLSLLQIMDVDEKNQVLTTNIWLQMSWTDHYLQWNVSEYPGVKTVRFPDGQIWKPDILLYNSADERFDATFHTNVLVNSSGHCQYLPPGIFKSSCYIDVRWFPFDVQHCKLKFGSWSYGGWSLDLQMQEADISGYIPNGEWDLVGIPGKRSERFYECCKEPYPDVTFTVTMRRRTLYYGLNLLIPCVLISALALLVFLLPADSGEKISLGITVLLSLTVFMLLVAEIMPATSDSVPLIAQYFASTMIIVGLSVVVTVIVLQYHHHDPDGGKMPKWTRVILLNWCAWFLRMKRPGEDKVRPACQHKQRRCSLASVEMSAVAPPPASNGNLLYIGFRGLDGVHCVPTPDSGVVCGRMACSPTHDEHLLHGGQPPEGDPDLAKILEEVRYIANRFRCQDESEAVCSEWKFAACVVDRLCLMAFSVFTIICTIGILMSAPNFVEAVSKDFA

Row | SMILES | melting point [°C] | EC50 (hα7-wt nAChR) [nM] | Emax (hα7-wt nAChR; read-out: % efficacy) [%]
1 | Cc1cc(Nc2nc(-c3ccnc(Cl)c3)n(CCC(=O)N(C)C)n2)ccc1F [Compound 192] | 149 | 631 | –
2 | C[C@H](O)Cn1nc(Nc2ccc(F)c(F)c2)nc1-c1ccc(C(=O)N2CCCC2)nc1 [Compound 174] | 181.7 | > 10000 | 667
3 | COCc1cc(-c2nc(Nc3ccc(F)c(C(F)(F)F)c3)nn2CC(=O)NC2CC2)ccn1 [Compound 62] | 204.6 | 316 | –
4 | CNC(=O)Cn1nc(Nc2ccc3c(c2)OC(F)(F)O3)nc1-c1cc(Cl)ncc1Cl [Compound 203] | 231.3 | 3160 | –
5 | C[C@H](O)Cn1nc(Nc2ccc(F)c(C(F)(F)F)c2)nc1-c1ccnc(NC2CC2)c1 [Compound 103] | 176.5 | 794 | –
6 | Cc1cc(C(=O)NCCCn2nc(Nc3cccc(C(F)(F)F)c3)nc2-c2ccncc2)no1 [Compound 8] | 152.9 to 154.9 | 2510 | –
7 | CNC(=O)Cn1nc(Nc2ccc(F)c(C(F)(F)F)c2)nc1-c1cnc2c(c1)OCC2 [Compound 28] | 246.8 | 794 | –
8 | OCCn1nc(Nc2ccc(F)c(C(F)(F)F)c2)nc1-c1ccc(C2CC2)nc1 [Compound 94] | 168 | 251 | –
9 | OCCn1nc(Nc2cccc(C(F)(F)F)c2)nc1-c1ccc(C2CC2)nc1 [Compound 76] | 152.9 | 501 | –
10 | COc1cc(-c2nc(Nc3cccc(C(F)(F)F)c3)nn2CCC(=O)N(C)C)cc(Cl)n1 [Compound 84] | 177.7 | 316 | –
11 | CNC(=O)Cn1nc(Nc2ccc(F)c(C(F)(F)F)c2)nc1-c1ccncc1F [Compound 116] | 249.5 | 1260 | –
12 | CN(C)C(=O)CCn1nc(Nc2cccc(OC(F)(F)F)c2)nc1-c1ccc(N)c(F)c1 [Compound 167] | 157.1 | 398 | –
13 | OCCn1nc(Nc2ccc(F)c(C(F)(F)F)c2)nc1-c1ccncc1 [Compound 87] | 171.1 | 2510 | –
14 | CCOC(=O)NCCn1nc(Nc2ccc(F)c(C(F)(F)F)c2)nc1-c1ccnc(C)c1 [Compound 139] | 160.5 | 1000 | –
15 | CCNC(=O)Cn1nc(Nc2ccc3c(c2)OC(F)(F)O3)nc1-c1ccnc2c1CCC2 [Compound 204] | 260.1 | 631 | –
16 | OCCn1nc(Nc2cccc(C(F)(F)F)c2)nc1-c1ccc(N2CCOCC2)nc1 [Compound 77] | 145.6 | 2510 | –
17 | CNC(=O)Cn1nc(Nc2ccc(F)c(C(F)(F)F)c2)nc1-c1ccncc1Cl [Compound 117] | 199.2 | 1000 | –
18 | CN(C)C(=O)CCn1nc(Nc2ccc3c(c2)OC(F)(F)O3)nc1-c1ccncc1 [Compound 33] | 216.4 | 631 | –
19 | CC1(NC(=O)Cn2nc(Nc3cccc(OC(F)(F)F)c3)nc2-c2ccc3c(c2)OCCO3)CC1 [Compound 166] | 219.3 | 200 | –
20 | CC(C)c1ccc(-c2nc(Nc3ccc(F)c(C(F)(F)F)c3)nn2CCC(=O)N(C)C)cn1 [Compound 129] | 176.3 | 39.8 | –
21 | CNc1cc(-c2nc(Nc3ccc(F)c(C(F)(F)F)c3)nn2CCc2noc(C)n2)ccn1 [Compound 37] | 188.7 | 1260 | –
22 | CCNC(=O)Cn1nc(Nc2ccc(F)c(C(F)(F)F)c2)nc1-c1ccncc1C [Compound 118] | 238.6 | 794 | –
23 | CNC(=O)Cn1nc(Nc2ccc(F)c(C(F)(F)F)c2)nc1-c1ccnc(NC)c1 [Compound 112] | 259.6 | 794 | –
24 | CN(C)C(=O)CCn1nc(Nc2cccc(OC(F)(F)F)c2)nc1-c1ccncc1 [Compound 168] | 178.4 | 501 | –
25 | Cc1cc(-c2nc(Nc3ccc4c(c3)OC(F)(F)O4)nn2CC(=O)NC2CCCC2)ccn1 [Compound 206] | 229.1 | 631 | –
26 | C[C@H](O)Cn1nc(Nc2ccc(F)c(C(F)(F)F)c2)nc1-c1ccnc(NCC2CC2)c1 [Compound 104] | 145.8 | 3160 | –
27 | CN(C)C(=O)CCn1nc(Nc2cccc(F)c2)nc1-c1ccc2c(c1)OCCO2 [Compound 194] | 114.3 to 116.3 | 316 | –

Row | SMILES | melting point [°C] | EC50 (hα7-wt nAChR) [nM] | Emax (hα7-wt nAChR; read-out: % efficacy) [%]
28 | NC(=O)Cn1nc(Nc2cccc(C(F)(F)F)c2)nc1-c1ccncc1 [Compound 19] | 271 to 272.1 | > 10000 | –
29 | CN(C)C(=O)CCn1nc(Nc2cc(F)c(F)cc2F)nc1-c1ccc(NC2CC2)nc1 [Compound 193] | 158.2 | 794 | –
30 | CNC(=O)Cn1nc(Nc2ccc(F)c(C(F)(F)F)c2)nc1-c1ccnc(C)c1 [Compound 107] | 265 | 1000 | –
31 | COc1ncccc1-c1nc(Nc2ccc(F)c(C(F)(F)F)c2)nn1CC(=O)NC1CC1 [Compound 121] | 242.4 | 2510 | –
32 | CCNC(=O)Cn1nc(Nc2cc(F)c(F)c(NCC)c2)nc1-c1ccnc(NCC)c1 [Compound 181] | 192.8 | 794 | –
33 | CC(=O)CCCn1nc(Nc2ccc(F)c(C(F)(F)F)c2)nc1-c1ccnc(C)c1 [Compound 43] | 124.1 | 794 | –
34 | COc1ccc(-c2nc(Nc3cccc(OC(F)(F)F)c3)nn2CC(=O)NC2CC2)cc1OC [Compound 163] | 192.7 to 195.3 | 631 | –
35 | Cc1ccncc1-c1nc(Nc2ccc(F)c(C(F)(F)F)c2)nn1CC(=O)NC1CC1 [Compound 120] | 251 | 3980 | –
36 | CNC(=O)Cn1nc(Nc2cc(F)c(F)c(F)c2)nc1-c1ccnc(NC)c1 [Compound 36] | 277.5 | 2510 | –
37 | CN(C)C(=O)CCn1nc(Nc2ccc(F)c(F)c2)nc1-c1ccc(C(F)(F)F)nc1 [Compound 191] | 194.4 | 1260 | –
38 | CCNc1ccc(-c2nc(Nc3cc(F)c(F)cc3F)nn2CCC(=O)N(C)C)cn1 [Compound 190] | 134.2 | 398 | –
39 | CNC(=O)Cn1nc(Nc2cccc(OC(F)(F)F)c2)nc1-c1ccncc1NC [Compound 153] | 208.6 | 1580 | –
40 | COc1cc(-c2nc(Nc3ccc(F)c(C(F)(F)F)c3)nn2CCO)ccn1 [Compound 90] | 177.1 | 2000 | –
41 | Cc1cc(-c2nc(Nc3ccc(F)c(C)c3)nn2CCC(=O)N(C)C)ccn1 [Compound 184] | 158.8 | 794 | –
42 | Cc1cc(-c2nc(Nc3ccc(F)c(F)c3)nn2CCC(=O)N(C)C)ccn1 [Compound 185] | 181.3 | 1000 | –
43 | OCCn1nc(Nc2cc(Cl)ccc2Cl)nc1-c1ccncc1 [Compound 14] | 163.4 to 165.2 | 5010 | –
44 | Cc1cc(-c2nc(Nc3cccc(C(F)(F)F)c3)nn2CCC(=O)N(C)C)ccn1 [Compound 48] | 169.1 | 631 | –
45 | NC(=O)Cn1nc(Nc2cccc(C(F)(F)F)c2)nc1-c1ccc2c(c1)OCCO2 [Compound 21] | 225.5 | 1260 | –
46 | COc1cccc(-c2nc(Nc3cccc(OC(F)(F)F)c3)nn2CC(=O)NC2CC2)c1 [Compound 162] | 196.5 to 206.2 | 79.4 | –
47 | COc1cc(-c2nc(Nc3cccc(C(F)(F)F)c3)nn2CCO)ccn1 [Compound 73] | 165.4 | 3160 | –
48 | CN(C)C(=O)CCn1nc(Nc2ccc(F)c(C(F)(F)F)c2)nc1-c1ccnc(NC2CC2)c1 [Compound 134] | 219.8 | 20 | –
49 | OCCn1nc(Nc2ccc(F)c(C(F)(F)F)c2)nc1-c1ccncc1F [Compound 89] | 149.4 | 5010 | –
50 | CNC(=O)Cn1nc(Nc2cc(F)cc(F)c2)nc1-c1ccnc(C2CC2)c1 [Compound 179] | 222.4 | 3160 | –
51 | CNC(=O)Cn1nc(Nc2cc(OC)cc(C(F)(F)F)c2)nc1-c1ccnc(NC)c1 [Compound 146] | 241.1 | 1000 | –
52 | Cc1ncccc1-c1nc(Nc2ccc(F)c(C(F)(F)F)c2)nn1CCC(=O)N(C)C [Compound 126] | 171.5 | 1260 | –
53 | Cc1cc(-c2nc(Nc3ccc4c(c3)OC(F)(F)O4)nn2CC(=O)NCC2CC2)ccn1 [Compound 26] | 227.2 | 794 | –
